Consider 16 molecules from patent US6800470B2, “Mammalian sphingosine kinase type 2 isoforms, cloning, expression and methods of use thereof” (Sankyo Company, Ltd., priority 2000, dated 2004).

Test [1] has as its system HEK293 cells. The test is described as follows: SPHK activity in HEK293 cells transiently transfected with SPHK expression vectors (cytosol and particulate fractions). It is filed as cell-based, human. The following applies: 24 hours after transfection of HEK293 cells. The procedure: In FIG. 3A, HEK 293 cells were transiently transfected with an empty vector or with mSPHK2 or hSPHK2 expression vectors. After 24 hours, SPHK activity was measured in cytosol (open bars) and particulate fractions (filled bars). The data are means±S.D. Parental and vector-transfected cells had basal SPHK activities of 26 and 37 pmol/min/mg, respectively.
(§1) Human embryonic kidney cells (HEK293, ATCC CRL-1573) and NIH 3T3 fibroblasts (ATCC CRL-1658) were cultured as described in Olivera, A., Kohama, T., Edsall, L. C., Nava, V., Cuvillier, O., Poulton, S., and Spiegel, S., J. Cell Biol., 147 (1999) 545-558. HEK293 cells were seeded at 6×10^5 per well in poly-L-lysine coated 6 well plates. After 24 hours, cells were transfected with 1 μg of vector alone or with vectors containing sphingosine kinase constructs and 6 μl of “Lipofectamine PLUS” reagent plus 4 μl of “Lipofectamine” reagent per well. One to three days after transfection, cells were harvested and lysed by freeze-thawing as described in Kohama, T., Olivera, A., Edsall, L., Nagiec, M. M., Dickson, R., and Spiegel, S., J. Biol. Chem., 273, (1998), 23722-23728. In some experiments, cell lysates were fractionated into cytosol and membrane fractions by centrifugation at 100,000×g for 60 minutes. SPHK activity was determined in the presence of sphingosine, prepared as a complex with 4 mg/ml BSA, and [g-32P] ATP in kinase buffer (Olivera, A. and Spiegel, S. in Methods in Molecular Biology, (Bird, I. M. ed.), (1998), Vol. 105, 233-242, Humana Press, Inc., Totowa, N.J.), containing 200 mM KCl, unless indicated otherwise. 32P-SPP was separated by TLC and quantified with a phosphoimager as previously described.

Test [2] has as its target T1, mSPHK2 (Mus musculus, UniProt Q9JIA7).
T1 construct: The open reading frames of mSPHK2 and hSPHK2 encode polypeptides of 617 and 618 amino acids, respectively; made in house; host or cells: HEK293 (ATCC CRL-1573), transient transfection; unpurified cytosol or whole lysate
T1 sequence (Q9JIA7 1-617): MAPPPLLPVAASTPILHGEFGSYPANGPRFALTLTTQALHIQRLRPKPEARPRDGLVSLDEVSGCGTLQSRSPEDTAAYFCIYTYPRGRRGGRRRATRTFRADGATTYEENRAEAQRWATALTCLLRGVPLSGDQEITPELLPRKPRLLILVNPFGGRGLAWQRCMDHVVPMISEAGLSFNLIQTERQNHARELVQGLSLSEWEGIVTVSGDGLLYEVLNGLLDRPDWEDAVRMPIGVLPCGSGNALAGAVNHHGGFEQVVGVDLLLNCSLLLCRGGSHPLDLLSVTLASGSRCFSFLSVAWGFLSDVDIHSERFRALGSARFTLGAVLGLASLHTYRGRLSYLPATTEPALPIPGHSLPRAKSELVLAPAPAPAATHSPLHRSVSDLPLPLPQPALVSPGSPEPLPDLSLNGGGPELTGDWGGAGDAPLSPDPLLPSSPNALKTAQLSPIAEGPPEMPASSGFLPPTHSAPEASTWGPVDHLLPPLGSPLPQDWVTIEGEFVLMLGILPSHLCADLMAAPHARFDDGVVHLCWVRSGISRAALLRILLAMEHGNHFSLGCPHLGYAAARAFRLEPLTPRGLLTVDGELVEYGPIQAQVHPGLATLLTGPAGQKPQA
The test is described as follows: SPHK activity assay with recombinant mSPHK2 (cytosol/lysates of transfected HEK293 cells, [g-32P]ATP, TLC). The following applies: for SPHK-dependent phosphorylation by SPHK2 (substrate specificity): lipids 50 mM as printed, cytosol of HEK293 cells transfected with mSPHK2, compared with D-erythro-sphingosine; for salt concentration with maximal stimulation of SPHK2 activity: increasing salt concentration, FIG. 5C. It is filed as biochemical. As to the method:
Lanes: 1, D-erythro-sphingosine (“D-erythro-Sph”); 2, D-erythro-dihydrosphingosine (“D-erythro-DHS”); 3, D, L-threo-DHS; 4, N,N-dimethylsphingosine (“DMS”); 5, C2-ceramide; 6, C16-ceramide; 7, diacylglycerol; 8, phosphatidylinositol; 9, phytosphingosine. Data are expressed as percentage of phosphorylation of D-erythro-Sph.
SPHK activity in HEK293 cell lysates after transfection as in FIG. 4A was measured with 10 μM D-erythro-sphingosine in the presence of increasing concentrations of DMS.
SPHK activity was measured with varying concentrations of D-erythro-sphingosine in the absence (open circles) or presence of 10 μM (filled squares) or 20 μM DMS (filled triangles).
FIG. 4D are Lineweaver-Burk plots.
(§2) In FIGS. 5B and 5C, the SPHK activity in HEK293 cell lysates was measured 24 hours after transfection with mSPHK1 (FIG. 5B) or mSPHK2 (FIG. 5C) in the absence or presence of increasing concentrations of NaCl (open squares) or KCl (filled circles).
FIG. 5E are Lineweaver-Burk plots of data from FIG. 5D.
(§3) HEK293 cells were transfected with mSPHK1a (open circles) or mSPHK2 (filled circles) and the activities of each in cell lysates were measured after 24 hours in the presence of the indicated concentrations of Triton X-100 (FIG. 6A) or BSA (FIG. 6B).
(§4) HEK293 cells were transfected with mSPHK1a (circles) or mSPHK2 (triangles) and the activities of each in cell lysates were measured after 24 hours in the presence of the indicated concentrations of phosphatidylserine (filled symbols) or phosphatidylcholine (open symbols). Data are expressed as percentage of control activity measured without any additions.
as §1

The target of test [3] is T2, mSPHK1a (Mus musculus, UniProt Q8CI15).
T2 construct: made in house; host or cells: HEK293 (ATCC CRL-1573), transient transfection; unpurified cell lysate
The following applies: cited from earlier work; for inhibition of SPHK1: previously shown (Edsall et al. 1998).

The target of test [4] is T2, mSPHK1a. The test is described as follows: SPHK activity assay with recombinant mSPHK1a (lysates of transfected HEK293 cells). It is filed as biochemical. The following applies: for inhibition of SPHK1 activity: salt concentration 200 mM. As to the method: as §2, §3, §4, §1

Entries after “also recorded” stand apart in the source; their conditions may differ.

T2 sequence (Q8CI15 1-381 isoform Q8CI15-3): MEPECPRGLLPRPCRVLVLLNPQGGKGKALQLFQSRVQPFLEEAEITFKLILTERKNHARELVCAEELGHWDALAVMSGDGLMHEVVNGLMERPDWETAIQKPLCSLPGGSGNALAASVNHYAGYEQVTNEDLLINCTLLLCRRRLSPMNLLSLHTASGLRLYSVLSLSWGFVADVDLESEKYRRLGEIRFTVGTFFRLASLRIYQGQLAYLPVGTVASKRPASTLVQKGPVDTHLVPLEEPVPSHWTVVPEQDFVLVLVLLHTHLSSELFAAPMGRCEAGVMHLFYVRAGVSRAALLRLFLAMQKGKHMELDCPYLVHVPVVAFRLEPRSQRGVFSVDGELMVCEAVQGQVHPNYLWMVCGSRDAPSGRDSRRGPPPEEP

Regarding “mSPHK1: first cloned mammalian (murine) sphingosine kinase, type 1”, the “increase of in vitro SPHK activity over basal levels” value in test [1] stood at 610 fold.
Regarding `CCCCCCCCCCCCC/C=C/[C@@H](O)[C@H](CO)NC(=O)CCCCCCCCCCCCCCC` [C16-ceramide], the “SPHK-dependent phosphorylation by SPHK2 (substrate specificity)” value (“SPHK-dependent phosphorylation by SPHK2” below) in test [2] was “not phosphorylated”.
Regarding `CCCCCCCCCCCCC/C=C/[C@@H](O)[C@@H](N)CO` [D-erythro-sphingosine], the “phosphorylation by SPHK1 (substrate rank)” value in test [3] (Kohama et al. 1998) is on record as “best substrate”.
Turning to `[Cl-].[Na+]` [NaCl], in test [2] (in words), the “effect on SPHK2 activity” value is on record as “dramatically stimulated; also recorded: markedly stimulated”. Besides, in test [2], the “salt concentration with maximal stimulation of SPHK2 activity” value is on record as 400 mM. Further, the “inhibition of SPHK1 activity” value in test [4] is 50%.
With `CCCCCCCCCCCCCCC[C@H](O)[C@@H](N)CO` [D,L-threo-dihydrosphingosine], the “SPHK-dependent phosphorylation by SPHK2” value was “significantly phosphorylated” in test [2] and “to a lesser extent” in test [2] (listed as D, L-threo-dihydrosphingosine). For the same molecule, in test [4], the “phosphorylation by SPHK1” value is “not phosphorylated at all”.
For Triton X-100, the “effect on SPHK2 activity” value in test [2] (Triton X-100 0.5%) is listed as “almost completely inhibited”; in test [2] (detergent below 0.005%), “no effect”; in test [2] (in words), “inhibited”. Also, in test [4] (Triton X-100 0.5%), the “increase of SPHK1 activity” value is given as “more than 4 fold”. The “effect on SPHK1 activity” value in test [4] (detergent below 0.005%) is reported as “no effect”; in test [4] (in words), “markedly increased”.
On to phosphatidylinositol, for which the “SPHK-dependent phosphorylation by SPHK2” value in test [2] is listed as “not phosphorylated”.
Consider `CCCCCCCCCCCCCCC[C@@H](O)[C@@H](N)CO` [DHS, dihydrosphingosine], for which the “inhibition of SPHK1” value in test [3] is reported as “potent competitive inhibitors; also recorded: potent inhibitor”. In addition, the “SPHK-dependent phosphorylation by SPHK2” value in test [2] is given as “even better substrate than D-erythro-sphingosine”.
On to N,N-dimethylsphingosine [DMS], for which the “inhibition of SPHK1” value in test [3] is “potent competitive inhibitors; also recorded: competitive inhibitor”. Also, the “inhibition of SPHK2” value in test [2] (10 μM D-erythro-sphingosine, increasing concentrations of DMS (FIG. 4B)) is on record as “potent inhibitor”. Moreover, the “manner of inhibition of SPHK2” value in test [2] (kinetic analysis, FIG. 4C and 4D) is given as “non-competitive”. In test [2], the “SPHK-dependent phosphorylation by SPHK2” value is “not phosphorylated”. In addition, in test [2] (recombinant mSPHK2, HEK293 cell lysates, varying D-erythro-sphingosine, 10 or 20 μM DMS, Lineweaver-Burk, read-out: Ki for DMS with SPHK2), the Ki (as a rule, a dissociation constant, usually derived from enzyme kinetics or from competition with a known ligand) stood at 12 µM.
Take `CCCCCCCCCCCCCCC[C@@H](O)[C@@H](N)CO` [D-erythro-dihydrosphingosine]: the “SPHK-dependent phosphorylation by SPHK2” value in test [2] is recorded as “better substrate for SPHK2 than D-erythro-sphingosine”.
Turning to `[Cl-].[K+]` [KCl], in test [2] (50 or 200 mM KCl), the “Km value of mSPHK2 for sphingosine in the presence of KCl” value was “not affected”. In addition, the “Vmax of mSPHK2” value worked out at 0.3 nmol/min/mg in test [2] (in the presence of 50 mM KCl) and 1 nmol/min/mg in test [2] (in the presence of 200 mM KCl). Moreover, in test [2] (in words), the “effect on SPHK2 activity” value is reported as “dramatically stimulated; also recorded: markedly stimulated”. In addition, the “salt concentration with maximal stimulation of SPHK2 activity” value in test [2] stood at 400 mM. In addition, the “inhibition of SPHK1 activity” value in test [4] came out at 50%.
As to “phosphatidylcholine [phosphatidyicholine]”, the “effect on SPHK2 activity” value in test [2] (in words) was “no effect”. In test [4] (in words), the “effect on SPHK1 activity” value is “no effect”.
Take phosphatidylserine: in test [2] (in words), the “effect on SPHK2 activity” value was “stimulated”. For the same molecule, the “maximal increase of SPHK2 activity” value in test [2] (phosphatidylserine 40 μg/ml) came out at 4 fold. Besides, the “effect on SPHK1 activity” value in test [4] (in words) was “stimulated”. The “maximal increase of SPHK1 activity” value in test [4] (phosphatidylserine 40 μg/ml) is 4 fold.
On to `CCCCCCCCCCCCC/C=C/[C@@H](O)[C@H](CO)NC(C)=O` [C2-ceramide], for which the “SPHK-dependent phosphorylation by SPHK2” value in test [2] is listed as “not phosphorylated”.
Still for that read-out and setting: to diacylglycerol belongs “not phosphorylated”.
Consider `CCCCCCCCCCCCCC[C@@H](O)[C@@H](O)[C@@H](N)CO` [phytosphingosine], for which the “SPHK-dependent phosphorylation by SPHK2” value in test [2] was “significantly phosphorylated; also recorded: to a lesser extent”. Moreover, the “phosphorylation by SPHK1” value in test [4] was “not phosphorylated at all”.
